# Assay results reported in patent US20230146455A1, “TREATMENT OF INFLAMMATORY DISEASES WITH PEPTIDES AND PHARMACEUTICAL COMPOSITIONS” (Yuyu Pharma, Inc., priority 2020, published 2023).
# Several values for one entry are separate records, joined by “and”; a condition that tells them apart may be missing. Equal entries are not always repeated. Where a SMILES comes first, the peptide text is derived from it. [ ]: non-standard residue; d: D form. Hyp = O=C(O)[C@@H]1C[C@@H](O)CN1
# Assays:
# TIMP-1 = experiment: Example 9 Luminex, LPS hPBMCs: TIMP-1; format: cell-based, human; conditions: PBMC + LPS(5 ug/ml)
# Experimental: (§1) Treatment Human PBMCs were pretreated with YY-101, YDE-011 and YDE-043 or reference compound; Xiidra® at various concentration (ranging from 1 nM to 100 uM) for 2 h before stimulation. An equal volume of 0.5% DMSO was used as a vehicle control. Then, the cells were treated with LPS at 5 ug/ml. The supernatants from treated cells were harvested at 24 h and placed in a 96 well for Luminex cytokine & chemokine profiling using a Luminex 200 multiplex assay (Luminex; R&D system, USA).
# (§2) The main study arm with triplicate wells per group in a 24-well plate: • 1. Blank • 2. PBMC: 0.5% DMSO • 3. PBMC+LPS (5 ug/ml) • 4. PBMC+YY-101 100 uM • 5. PBMC+YY-101 10 uM • 6. PBMC+YY-101 1 uM • 7. PBMC+YY-101 0.1 uM • 8. PBMC+YY-101 0.01 uM • 9. PBMC+LPS (5 ug/ml)+Xiidra®100 uM • 10. PBMC+LPS (5 ug/ml)+Xiidra® 10 uM • 11. PBMC+LPS (5 ug/ml)+Xiidra® 1 uM • 12. PBMC+LPS (5 ug/ml)+Xiidra®0.1 uM • 13. PBMC+LPS (5 ug/ml)+Xiidra®0.01 uM • 14. PBMC+LPS (5 ug/ml)+Xiidra®0.001 uM • 15. PBMC+LPS (5 ug/ml)+YY-101 100 uM • 16. PBMC+LPS (5 ug/ml)+YY-101 10 uM • 17. PBMC+LPS (5 ug/ml)+YY-101 1 uM • 18. PBMC+LPS (5 ug/ml)+YY-101 0.1 uM • 19. PBMC+LPS (5 ug/ml)+YY-101 0.01 uM • 20. PBMC+LPS (5 ug/ml)+YY-101 0.001 uM • 21. PBMC+LPS (5 ug/ml)+YDE-011 100 uM • 22. PBMC+LPS (5 ug/ml)+YDE-011 10 uM • 23. PBMC+LPS (5 ug/ml)+YDE-011 1 uM • 24. PBMC+LPS (5 ug/ml)+YDE-011 0.1 uM • 25. PBMC+LPS (5 ug/ml)+YDE-011 0.01 uM • 26. PBMC+LPS (5 ug/ml)+YDE-011 0.001 uM • 27. PBMC+LPS (5 ug/ml)+YDE-043 100 uM • 28. PBMC+LPS (5 ug/ml)+YDE-043 10 uM • 29. PBMC+LPS (5 ug/ml)+YDE-043 1 uM • 30. PBMC+LPS (5 ug/ml)+YDE-043 0.1 uM • 31. PBMC+LPS (5 ug/ml)+YDE-043 0.01 uM • 32. PBMC+LPS (5 ug/ml)+YDE-043 0.001 uM
# (§3) Multiplex assay was used to measure 30 cytokines and chemokines. The 1:2, 1:10 and 1:200 diluted cell supernatant and serial dilution of the standard were dispensed into a 96 well plate at 50 ul/well. Then, the pre-mixed cocktail of antibody-coated magnetic beads was dispensed at 50 ul/well and incubated at room temperature for 2 h in a horizontal orbital microplate shaker at 800±500 rpm. The beads were washed using a magnetic device to prevent loss. The biotin-antibody was dispensed in 50 ul of each well and incubated at room temperature for 1 h in a shaker at 800±500 rpm. After washing, streptavidin-PE was added at 50 ul/well and incubated at room temperature for 30 min in a shaker under the same conditions. Finally, after washing, wash buffer (100 ul/well) was added to the plate and incubated in a shaker for 2 min. The Luminex™ 200 setting were set according to the manufacturer's protocol. The data was calculated with a standard five-parameter logistic nonlinear regression analysis of the data (xPonent software 4.2, USA). The levels of cytokine/chemokine are normalized to the live cell counts (1×10^5 cells/mL) and presented as concentrations per mL (pg/mL or ng/mL).
# CCL2/JE/MCP-1 = experiment: Example 9 Luminex, LPS hPBMCs: CCL2/JE/MCP-1; format: cell-based, human
# Experimental: as §1, §2, §3
# [1] = test article 0.001 uM, single replicates
# [2] = test article 0.01 uM, single replicates
# [3] = test article 0.1 uM, single replicates
# [4] = test article 1 uM, single replicates
# [5] = test article 10 uM, single replicates
# [6] = test article 100 uM, single replicates
# [7] = PBMC + LPS(5 ug/ml) + test article 0.001 uM, Mean
# [8] = PBMC + LPS(5 ug/ml) + test article 0.001 uM, individual replicates
# [9] = PBMC + LPS(5 ug/ml) + test article 0.01 uM, Mean
# [10] = PBMC + LPS(5 ug/ml) + test article 0.01 uM, individual replicates
# [11] = PBMC + LPS(5 ug/ml) + test article 0.1 uM, Mean
# [12] = PBMC + LPS(5 ug/ml) + test article 0.1 uM, individual replicates
# [13] = PBMC + LPS(5 ug/ml) + test article 1 uM, Mean
# [14] = PBMC + LPS(5 ug/ml) + test article 1 uM, individual replicates
# [15] = PBMC + LPS(5 ug/ml) + test article 10 uM, Mean
# [16] = PBMC + LPS(5 ug/ml) + test article 10 uM, individual replicates
# [17] = PBMC + LPS(5 ug/ml) + test article 100 uM, Mean
# [18] = PBMC + LPS(5 ug/ml) + test article 100 uM, individual replicates
smiles,measurement,setting,value
CC(C)C[C@H](NC(=O)[C@H](CCC(N)=O)NC(=O)CNC(=O)[C@@H]1C[C@@H](O)CN1)C(=O)NCC(=O)O [YDE-043] (H-[Hyp]GQLG-OH; N-terminus and C-terminus assumed),TIMP-1 Concentration,"TIMP-1; test article 0.001 uM, Mean",2001.5 pg/mL
same,TIMP-1 MFI,"TIMP-1; test article 0.001 uM, Mean",1096.8
same,TIMP-1 conc/live cell,"TIMP-1; test article 0.001 uM, Mean",406.7 pg/10^5
same,TIMP-1 Concentration,TIMP-1; [1],1887.3 pg/mL and 2046.6 pg/mL and 2070.5 pg/mL
same,TIMP-1 MFI,TIMP-1; [1],1014.0 and 1129.5 and 1147.0
same,TIMP-1 conc/live cell,TIMP-1; [1],428.9 pg/10^5 and 341.1 pg/10^5 and 450.1 pg/10^5
same,TIMP-1 Concentration,"TIMP-1; test article 0.01 uM, Mean",1986.7 pg/mL
same,TIMP-1 MFI,"TIMP-1; test article 0.01 uM, Mean",1085.8
same,TIMP-1 conc/live cell,"TIMP-1; test article 0.01 uM, Mean",380.0 pg/10^5
same,TIMP-1 Concentration,TIMP-1; [2],2007.5 pg/mL and 1991.7 pg/mL and 1960.7 pg/mL
same,TIMP-1 MFI,TIMP-1; [2],1101.0 and 1089.5 and 1067.0
same,TIMP-1 conc/live cell,TIMP-1; [2],446.1 pg/10^5 and 301.8 pg/10^5 and 392.1 pg/10^5
same,TIMP-1 Concentration,"TIMP-1; test article 0.1 uM, Mean",1829.5 pg/mL
same,TIMP-1 MFI,"TIMP-1; test article 0.1 uM, Mean",972.8
same,TIMP-1 conc/live cell,"TIMP-1; test article 0.1 uM, Mean",339.9 pg/10^5
same,TIMP-1 Concentration,TIMP-1; [3],1850.4 pg/mL and 1718.3 pg/mL and 1919.9 pg/mL
same,TIMP-1 MFI,TIMP-1; [3],987.5 and 893.5 and 1037.5
same,TIMP-1 conc/live cell,TIMP-1; [3],370.1 pg/10^5 and 306.8 pg/10^5 and 342.8 pg/10^5
same,TIMP-1 Concentration,"TIMP-1; test article 1 uM, Mean",1838.3 pg/mL
same,TIMP-1 MFI,"TIMP-1; test article 1 uM, Mean",979.0
same,TIMP-1 conc/live cell,"TIMP-1; test article 1 uM, Mean",348.3 pg/10^5
same,TIMP-1 Concentration,TIMP-1; [4],1928.2 pg/mL and 1809.9 pg/mL and 1776.9 pg/mL
same,TIMP-1 MFI,TIMP-1; [4],1043.5 and 958.5 and 935.0
same,TIMP-1 conc/live cell,TIMP-1; [4],332.5 pg/10^5 and 377.1 pg/10^5 and 335.3 pg/10^5
same,TIMP-1 Concentration,"TIMP-1; test article 10 uM, Mean",1844.9 pg/mL
same,TIMP-1 MFI,"TIMP-1; test article 10 uM, Mean",983.7
same,TIMP-1 conc/live cell,"TIMP-1; test article 10 uM, Mean",342.1 pg/10^5
same,TIMP-1 Concentration,TIMP-1; [5],1853.9 pg/mL and 1912.3 pg/mL and 1768.4 pg/mL
same,TIMP-1 MFI,TIMP-1; [5],990.0 and 1032.0 and 929.0
same,TIMP-1 conc/live cell,TIMP-1; [5],356.5 pg/10^5 and 354.1 pg/10^5 and 315.8 pg/10^5
same,TIMP-1 Concentration,"TIMP-1; test article 100 uM, Mean",2156.3 pg/mL
same,TIMP-1 MFI,"TIMP-1; test article 100 uM, Mean",1210.3
same,TIMP-1 conc/live cell,"TIMP-1; test article 100 uM, Mean",342.6 pg/10^5
same,TIMP-1 Concentration,TIMP-1; [6],2247.5 pg/mL and 2065.1 pg/mL
same,TIMP-1 MFI,TIMP-1; [6],1277.5 and 1143.0
same,TIMP-1 conc/live cell,TIMP-1; [6],362.5 pg/10^5 and 322.7 pg/10^5
same,Concentration,CCL2/JE/MCP-1; [7],2109.3 pg/mL
same,conc/live cell,CCL2/JE/MCP-1; [7],427.9 pg/10^5
same,Concentration,CCL2/JE/MCP-1; [8],2082.8 pg/mL and 2215.5 pg/mL and 2029.7 pg/mL
same,conc/live cell,CCL2/JE/MCP-1; [8],473.4 pg/10^5 and 369.2 pg/10^5 and 441.2 pg/10^5
same,Concentration,CCL2/JE/MCP-1; [9],2023.7 pg/mL
same,conc/live cell,CCL2/JE/MCP-1; [9],388.1 pg/10^5
same,Concentration,CCL2/JE/MCP-1; [10],2036.2 pg/mL and 1963.4 pg/mL and 2071.4 pg/mL
same,conc/live cell,CCL2/JE/MCP-1; [10],452.5 pg/10^5 and 297.5 pg/10^5 and 414.3 pg/10^5
same,Concentration,CCL2/JE/MCP-1; [11],1922.5 pg/mL
same,conc/live cell,CCL2/JE/MCP-1; [11],358.4 pg/10^5
same,Concentration,CCL2/JE/MCP-1; [12],2109.9 pg/mL and 1768.2 pg/mL and 1889.5 pg/mL
same,conc/live cell,CCL2/JE/MCP-1; [12],422.0 pg/10^5 and 315.8 pg/10^5 and 337.4 pg/10^5
same,Concentration,CCL2/JE/MCP-1; [13],2123.4 pg/mL
same,conc/live cell,CCL2/JE/MCP-1; [13],402.7 pg/10^5
same,Concentration,CCL2/JE/MCP-1; [14],2174.1 pg/mL and 2114.7 pg/mL and 2081.5 pg/mL
same,conc/live cell,CCL2/JE/MCP-1; [14],374.9 pg/10^5 and 440.6 pg/10^5 and 392.7 pg/10^5
same,Concentration,CCL2/JE/MCP-1; [15],1799.9 pg/mL
same,conc/live cell,CCL2/JE/MCP-1; [15],333.9 pg/10^5
same,Concentration,CCL2/JE/MCP-1; [16],1889.0 pg/mL and 1766.4 pg/mL and 1744.2 pg/mL
same,conc/live cell,CCL2/JE/MCP-1; [16],363.3 pg/10^5 and 327.1 pg/10^5 and 311.5 pg/10^5
same,Concentration,CCL2/JE/MCP-1; [17],281.0 pg/mL
same,conc/live cell,CCL2/JE/MCP-1; [17],44.6 pg/10^5
same,Concentration,CCL2/JE/MCP-1; [18],258.9 pg/mL and 303.0 pg/mL
same,conc/live cell,CCL2/JE/MCP-1; [18],41.8 pg/10^5 and 47.3 pg/10^5
